The record followed here is ChEMBL document CHEMBL1201862, “PubChem BioAssay data set” (2004).

Holding throughout (assay): NCI anticancer screen, dose series, 48 h
Assay [1] has as its system SN12C.
Assay [2] relates to 786-0.
The test system of assay [3] is NCI-H23.
For assay [4], the system named is OVCAR-5.
Assay [5] has as its system Malme-3M.
The subject of assay [6] is T47D.
The subject of assay [7] is HOP-92.
Assay [8] deals with SK-MEL-2.
For assay [9], the system named is MOLT-4.
Assay [10] has as its system SF-295.
Assay [11] has as its system SNB-19.
Assay [12] has as its system NCI-H460.
In assay [13] the test system is K562.
For assay [14], the system named is PC-3.
Assay [15] concerns MDA-MB-231.
The test system of assay [16] is OVCAR-4.
The subject of assay [17] is SK-MEL-5.
Assay [18] has as its system RXF 393.
The test system of assay [19] is EKVX.
For assay [20], the system named is U-251.

The structures appear in SMILES notation.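 These data come from cells grown in 96-well plates and exposed to compound for 48 hours at five concentrations. GI50 is the concentration that inhibits growth by half.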 Activity calls are given as the source filed them. No stated cut-off is given here; in the data, active = GI50 up to about 1.1 µM and inactive = higher.

For the compound `CSc1nc(C)c2c(n1)N(c1ccc(Cl)cc1)CC2`, the GI50 in assay [1] was > 100 µM (inactive); in [2], 77.1 µM (inactive); in assay [3], > 100 µM (inactive); in [4], > 100 µM (inactive); in [5], > 100 µM (inactive); in [6] it was > 100 µM (inactive). The GI50 in [7], in assay [8], in [9], in assay [10], in assay [11] and in [12] was > 100 µM (inactive) throughout. Also, the GI50 in assay [13] was 88.3 µM (inactive); in assay [14], > 100 µM (inactive); in [15] it was 42.3 µM (inactive); in [16] it was 61.4 µM (inactive); in [17], > 100 µM (inactive); in assay [18], > 100 µM (inactive). For the same compound, the GI50 in [19] and in assay [20] was > 100 µM (inactive) throughout.

Consider `O=c1c2cccnc2[nH]c2ccc3[nH]ncc3c12`, for which the GI50 in [1], in assay [2], in assay [3], in [4], in [5] and in assay [6] was > 10 µM (inactive) each time. In addition, the GI50 in assay [7], in [8], in assay [9], in assay [10], in assay [11] and in [12] was > 10 µM (inactive) each time. Besides, the GI50 in [13], in assay [14], in [15], in assay [16], in assay [17] and in assay [18] was > 10 µM (inactive) throughout. The GI50 is 9.33 µM (inactive) in assay [19] and > 10 µM (inactive) in assay [20].

On to `Cc1cc(-c2nc3cc(F)ccc3s2)ccc1NC(=O)C(C)N` (stereo not given), for which the GI50 in [1] was 4.32 µM (inactive); in assay [2], 3.76 µM (inactive); in [3], 2.67 µM (inactive); in [4], 1 µM (active); in [5], 15.2 µM (inactive); in [6], 0.0847 µM (active). Besides, the GI50 in [7] is 3.97 µM (inactive); in assay [8], 4.11 µM (inactive); in assay [9], 3.33 µM (inactive); in assay [10], 3.82 µM (inactive); in assay [11] it was 4.72 µM (inactive); in assay [12], 0.955 µM (active). Further, the GI50 was 5.62 µM (inactive) in assay [13]; 4.13 µM (inactive) in [14]; 3.77 µM (inactive) in [15]; 1.02 µM (active) in assay [16]; 9.84 µM (inactive) in assay [17]; 3.75 µM (inactive) in assay [18]. The GI50 is 3.1 µM (inactive) in assay [19] and 4.36 µM (inactive) in [20].

On to `CN(C)CCN1C(=O)c2cccc3cc([N+](=O)[O-])cc(c23)C1=O` [MITONAFIDE], for which the GI50 is 0.179 µM (active) in [1]; 0.195 µM (active) in assay [2]; 0.308 µM (active) in assay [3]; 0.762 µM (active) in [4]; 0.404 µM (active) in assay [5]; 0.601 µM (active) in assay [6]. The GI50 is 0.255 µM (active) in assay [7]; 1.37 µM (inactive) in assay [8]; 0.0406 µM (active) in assay [9]; 0.209 µM (active) in assay [10]; 0.25 µM (active) in assay [11]; 0.0803 µM (active) in [12]. For the same compound, the GI50 in assay [13] was 1.56 µM (inactive); in assay [14], 0.931 µM (active); in [15], 1.31 µM (inactive); in [16], 1.2 µM (inactive); in assay [17] it was 0.237 µM (active); in assay [18], 0.337 µM (active). Further, the GI50 in assay [19] is 0.624 µM (active); in assay [20], 0.213 µM (active).

With `O=C(COC(c1ccc(F)cc1)c1ccc(F)cc1)N1CCN(CCCc2ccccc2)CC1`, the GI50 is 3.01 µM (inactive) in assay [1]; 3.94 µM (inactive) in assay [2]; 1.76 µM (inactive) in assay [3]; 4.15 µM (inactive) in [4]; 4.68 µM (inactive) in [5]; 3.3 µM (inactive) in assay [6]. Moreover, the GI50 in [7] was 2.55 µM (inactive); in assay [8] it was 3.87 µM (inactive); in assay [9], 4.66 µM (inactive); in [10], 4.04 µM (inactive); in [11] it was 4.22 µM (inactive); in assay [12] it was 3.57 µM (inactive). For the same compound, the GI50 in [13] was 3.88 µM (inactive); in [14] it was 3.37 µM (inactive); in assay [15] it was 3.22 µM (inactive); in assay [16], 3.24 µM (inactive); in assay [17], 2.65 µM (inactive); in assay [18], 3.22 µM (inactive). The GI50 in assay [19] is 4.44 µM (inactive); in assay [20] it was 4.16 µM (inactive).

Take `COc1ccc2cc(/C=N\NC(=O)Nc3ccc([N+](=O)[O-])cc3)ccc2c1`: the GI50 is 12.4 µM (inactive) in assay [1]; 8.59 µM (inactive) in [2]; 11.4 µM (inactive) in [3]; 18.5 µM (inactive) in assay [4]; 12.3 µM (inactive) in assay [5]; 14.2 µM (inactive) in assay [6]. Also, the GI50 is 16 µM (inactive) in assay [7]; 13.3 µM (inactive) in assay [8]; 16.5 µM (inactive) in assay [9]; 13.8 µM (inactive) in [10]; 13.2 µM (inactive) in [11]; 12.4 µM (inactive) in [12]. The GI50 in [13] was 14.8 µM (inactive); in [14], 11.8 µM (inactive); in assay [15], 13.9 µM (inactive); in [16], 5.04 µM (inactive); in assay [17] it was 11.7 µM (inactive); in assay [18], 11.2 µM (inactive). In addition, the GI50 in assay [19] was 14 µM (inactive); in assay [20], 13.6 µM (inactive).

`C=CCN(C(=O)CNC(=O)C(F)(F)F)c1cc(OCc2ccccc2)c2c(c1)c(C)cn2S(=O)(=O)c1ccccc1`: the GI50 in assay [1] is > 100 µM (inactive); in assay [2], > 100 µM (inactive); in assay [3] it was > 87.7 µM (inactive); in [4] it was > 100 µM (inactive); in [5] it was > 100 µM (inactive); in [6] it was 5.93 µM (inactive). Besides, the GI50 in assay [7] is 4.92 µM (inactive); in assay [8] it was > 28.5 µM (inactive); in assay [9], 4.16 µM (inactive); in [10] it was 23 µM (inactive); in [11] it was > 100 µM (inactive); in assay [12], > 30.5 µM (inactive). In addition, the GI50 is > 23.9 µM (inactive) in [13]; 5.96 µM (inactive) in assay [14]; > 24.1 µM (inactive) in assay [15]; 9.16 µM (inactive) in assay [16]; 24 µM (inactive) in assay [17]; 5.51 µM (inactive) in assay [18]. Moreover, the results for the GI50 in assay [19] and in [20] were 7.71 µM (inactive) and > 67.9 µM (inactive), respectively.

Consider `O=C1C(Cl)=C(N2CCC[C@@H]2CO)C(=O)c2c(O)ccc(O)c21`, for which the GI50 in assay [1] is 1.79 µM (inactive); in assay [2], 1.76 µM (inactive); in assay [3] it was 1.64 µM (inactive); in [4], 1.69 µM (inactive); in assay [5], 1.64 µM (inactive); in assay [6], 1.78 µM (inactive). Moreover, the GI50 in assay [7] was 1.66 µM (inactive); in assay [8] it was 1.57 µM (inactive); in [9] it was 0.269 µM (active); in assay [10], 1.79 µM (inactive); in assay [11], 1.66 µM (inactive); in assay [12], 1.73 µM (inactive). Also, the GI50 in assay [13] is 0.347 µM (active); in assay [14] it was 1.91 µM (inactive); in assay [15], 2.02 µM (inactive); in [16], 1.76 µM (inactive); in assay [17], 1.01 µM (active); in assay [18], 1.6 µM (inactive). The results for the GI50 in assay [19] and in assay [20] were 1.87 µM (inactive) and 1.83 µM (inactive), respectively.

Take `C[N+](C)(N)Cc1nc(-c2ccc(Cl)cc2)no1`: the GI50 in assay [1] was > 100 µM (inactive); in assay [2], > 100 µM (inactive); in assay [3], > 100 µM (inactive); in assay [4], > 100 µM (inactive); in assay [5] it was > 100 µM (inactive); in [6], 22.9 µM (inactive). Besides, the GI50 in [7] is > 100 µM (inactive); in assay [8], > 100 µM (inactive); in [9] it was 20.8 µM (inactive); in assay [10], > 100 µM (inactive); in [11], > 100 µM (inactive); in [12] it was > 100 µM (inactive). Moreover, the GI50 in [13] was 44.2 µM (inactive); in [14], > 100 µM (inactive); in [15] it was > 100 µM (inactive); in [16], > 100 µM (inactive); in assay [17] it was 75.3 µM (inactive); in [18], > 100 µM (inactive). Besides, the GI50 in assay [19] is 37.7 µM (inactive); in [20], > 100 µM (inactive).

In the case of `CC(CC(N)C(=O)O)C(=O)O` (stereo not given), the GI50 in assay [1], in assay [2], in assay [3], in [4], in assay [5] and in assay [6] was > 100 µM (inactive) throughout. For the same compound, the GI50 in assay [7], in assay [8], in [9], in assay [10], in assay [11] and in [12] was > 100 µM (inactive) each time. Besides, the GI50 in [13], in assay [14], in [15], in assay [16], in assay [17] and in assay [18] was > 100 µM (inactive) each time. Also, the GI50 in assay [19] and in [20] was > 100 µM (inactive) in each case.
